We go through three molecules from publication PMC9617675 (Antiviral Research, 2022).

Each structure is given as a SMILES string. Where “and” joins values, the source holds several entries; their conditions need not be identical. Equal entries are not always repeated. Where two headings read alike, the source gives them in different places.

One series can be described thus: in vitro. The note with it: African green monkey.
For series [1] the following is noted: healthy human; ref NCT05197179 and NCT04766931; cited from earlier work.
Another series concerns SARS-CoV-2. Briefly: Time of addition assay in Vero E6 cells. In kind it is cell-based. The note with it: 2 μM, 10 μM, 1 μM + P-gp inhibitor; entry, post entry and full-time.
Series [2] relates to SARS-CoV-2 B.1.1.7 (Alpha). In kind it is cell-based. The note with it: Vero E6 cells, mean ± SD.
Series [3] concerns SARS-CoV-2 B.1.351 (Beta). In kind it is cell-based. The note with it: Vero E6 cells, mean ± SD.
Series [4] deals with SARS-CoV-2 (2019-nCoV-WIV04). Format: cell-based. The note with it: Vero E6.
Series [5] relates to SARS-CoV-2 wild-type (2019-nCoV-WIV04). In kind it is cell-based.
The test system of series [6] is SARS-CoV-2 B.1.617.2 (Delta). In kind it is cell-based. The note with it: Vero E6 cells, mean ± SD.

On to `CCN(CC)CCCC(C)Nc1ccnc2cc(Cl)ccc12` (stereo not drawn) [Chloroquine phosphate], for which the CC50 in “in vitro” is above 100000 nM.
As for `O=C[C@H](C[C@@H]1CCNC1=O)NC(=O)[C@H](CC1CCCCC1)NC(=O)c1cc2ccccc2[nH]1` [FB2001], the safety and tolerability result in series [1] was “good safety and tolerability”. For the same molecule, the “antiviral activity in time of addition assay” value in the series with SARS-CoV-2 is on record as “potent antiviral activities under all conditions”. Besides, the CC50 with Vero E6 cells (CCK8, 24 h) is 243000 nM and 274000 nM; in the series with Vero E6 cells (CCK8, with P-gp inhibitor CP-100356), 142000 nM. Also, the concentration for a half-maximal effect (EC50) was 390 ± 10 nM in series [2]; 280 ± 110 nM in series [3]; 1100 nM in [4] (10% human serum); 1910 nM in series [4] (20% human serum); 2570 nM in [4] (30% human serum); 2150 nM in [4] (40% human serum). The 50% effective concentration (EC50) in series [4] (50% human serum) was determined as 2400 nM; in series [5], 420 ± 80 nM; in [6], 270 ± 50 nM. Moreover, the EC90 in series [2] stood at 750 ± 10 nM; in series [3], 570 ± 210 nM; in series [5], 1360 ± 1730 nM; in series [6] it was 810 ± 200 nM.
As to `CC(C)(C)[C@H](NC(=O)C(F)(F)F)C(=O)N1C[C@H]2[C@@H]([C@H]1C(=O)N[C@H](C#N)C[C@@H]1CCNC1=O)C2(C)C` [PF-07321332, reference compound], the results for the EC50 in series [2], in series [3] and in [6] were 820 ± 20 nM, 490 ± 60 nM and 780 ± 210 nM, respectively. The concentration for an effect of 90% (EC90) was 1540 ± 20 nM in series [2], 1740 ± 260 nM in [3] and 1890 ± 100 nM in series [6].

The EC50 is the concentration that produces a half-maximal response. The term EC90 denotes the point of the concentration-response curve where the effect stands at 90%.
